Assay results taken from the supplement of paper PMC11451515.

Tested on: P12-Ichikawa
Test: cell viability relative to DMSO control; higher = less cytotoxic
Details: 48 h
Method in brief: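 Library compounds in DMSO were pin-dosed into 1536-well plates (5 μl) holding NOMO1 or SEM (500 cells/well) or P12-Ichikawa (1000 cells/well) leukemia cells, across an 11-point threefold series of 47 μM to 0.79 nM. Each cell line had been adapted for at least four passages in each medium. CellTiter-Glo One luminescence was read after 48 h at 37°C. Viability is the per-plate percentage relative to DMSO wells, with cell-free wells as background.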

[1] = HPLM + 10% dialyzed FBS, 0.000781 µM
[2] = HPLM + 10% dialyzed FBS, 0.00234 µM
[3] = HPLM + 10% dialyzed FBS, 0.00702 µM
[4] = HPLM + 10% dialyzed FBS, 0.0211 µM
[5] = HPLM + 10% dialyzed FBS, 0.0632 µM
[6] = HPLM + 10% dialyzed FBS, 0.19 µM
[7] = HPLM + 10% dialyzed FBS, 0.569 µM
[8] = HPLM + 10% dialyzed FBS, 1.71 µM
[9] = HPLM + 10% dialyzed FBS, 5.12 µM
[10] = HPLM + 10% dialyzed FBS, 15.4 µM
[11] = HPLM + 10% dialyzed FBS, 46.1 µM
[12] = RPMI 5 mM glucose + 10% FBS, 0.000781 µM
[13] = RPMI 5 mM glucose + 10% FBS, 0.00234 µM
[14] = RPMI 5 mM glucose + 10% FBS, 0.00702 µM
[15] = RPMI 5 mM glucose + 10% FBS, 0.0211 µM
[16] = RPMI 5 mM glucose + 10% FBS, 0.0632 µM
[17] = RPMI 5 mM glucose + 10% FBS, 0.19 µM
[18] = RPMI 5 mM glucose + 10% FBS, 0.569 µM
[19] = RPMI 5 mM glucose + 10% FBS, 1.71 µM
[20] = RPMI 5 mM glucose + 10% FBS, 5.12 µM
[21] = RPMI 5 mM glucose + 10% FBS, 15.4 µM
[22] = RPMI 5 mM glucose + 10% FBS, 46.1 µM
[23] = RPMI 5 mM glucose + 10% dialyzed FBS, 0.000781 µM
[24] = RPMI 5 mM glucose + 10% dialyzed FBS, 0.00234 µM
[25] = RPMI 5 mM glucose + 10% dialyzed FBS, 0.00702 µM
[26] = RPMI 5 mM glucose + 10% dialyzed FBS, 0.0211 µM
[27] = RPMI 5 mM glucose + 10% dialyzed FBS, 0.0632 µM
[28] = RPMI 5 mM glucose + 10% dialyzed FBS, 0.19 µM
[29] = RPMI 5 mM glucose + 10% dialyzed FBS, 0.569 µM
[30] = RPMI 5 mM glucose + 10% dialyzed FBS, 1.71 µM
[31] = RPMI 5 mM glucose + 10% dialyzed FBS, 5.12 µM
[32] = RPMI 5 mM glucose + 10% dialyzed FBS, 15.4 µM
[33] = RPMI 5 mM glucose + 10% dialyzed FBS, 46.1 µM

Structure (SMILES) | cell viability [1] [%] | cell viability [2] [%] | cell viability [3] [%] | cell viability [4] [%] | cell viability [5] [%] | cell viability [6] [%] | cell viability [7] [%] | cell viability [8] [%] | cell viability [9] [%] | cell viability [10] [%] | cell viability [11] [%] | cell viability [12] [%] | cell viability [13] [%] | cell viability [14] [%] | cell viability [15] [%] | cell viability [16] [%] | cell viability [17] [%] | cell viability [18] [%] | cell viability [19] [%] | cell viability [20] [%] | cell viability [21] [%] | cell viability [22] [%] | cell viability [23] [%] | cell viability [24] [%] | cell viability [25] [%] | cell viability [26] [%] | cell viability [27] [%] | cell viability [28] [%] | cell viability [29] [%] | cell viability [30] [%] | cell viability [31] [%] | cell viability [32] [%] | cell viability [33] [%]
COCCOc1nc(-c2ccc(Cl)c(Cl)c2)n(-c2ccc(NC(=O)CCl)cc2)n1 | 96.6 | 97.3 | 102 | 103 | 103 | 106 | 99.1 | 104 | 84.4 | 99.8 | 98.5 | 89.4 | 101 | 90.1 | 104 | 98.9 | 101 | 93.4 | 107 | 79.7 | 79.9 | 88.7 | 84.1 | 92.2 | 86.1 | 94.6 | 91.2 | 93.7 | 98.9 | 86.4 | 76 | 77.8 | 86.9
CC/1=C(/C(CC(=O)N1)C2=CC=C(C=C2)C(F)(F)F)C(=O)NC3=C(F)C=C4[NH]N=CC4=C3 (stereo not given) | 93.5 | 103 | 101 | 102 | 101 | 99.1 | 100 | 97.3 | 98.4 | 58.6 | 44.6 | 96.2 | 104 | 102 | 100 | 108 | 99.9 | 104 | 98.3 | 98.3 | 66.9 | 62 | 95.3 | 99.8 | 99.9 | 101 | 104 | 105 | 107 | 96.9 | 107 | 66.5 | 47.6
Nc1nnc(-c2cccc(Cl)c2Cl)c(N)n1 | 87.5 | 105 | 104 | 10.7 | 107 | 106 | 99.7 | 104 | 102 | 112 | 102 | 90.2 | 98.1 | 95.8 | 11.9 | 100 | 106 | 99.6 | 90.5 | 102 | 102 | 91 | 83.8 | 88.4 | 87.7 | 29.6 | 95 | 97.7 | 99.4 | 97.5 | 98.7 | 105 | 92.1
O=C(O)CCn1c2c(c3ccccc31)C[C@H](N[S+](=O)([O-])c1ccc(F)cc1)CC2 | 117 | 113 |  | 110 | 113 | 106 | 113 | 111 | 106 | 100 | 73.6 | 119 | 120 | 121 | 121 | 120 | 122 | 122 | 111 | 114 | 115 | 95.5 | 110 | 116 | 116 | 114 | 115 | 103 | 109 | 108 | 102 | 92.2 | 66.9
COC/1=C/C=C2\C(=C/C1=O)[C@H](CCC3=CC(=C(OC)C(=C23)OC)OC)NC(C)=O | 45.1 | 26.4 | 14.5 | 12.8 | 10.9 | 9.53 | 6.89 | 4.02 | 3.71 | 3.18 | 1.19 | 32.3 | 19.7 | 15.6 | 10.3 | 9.46 | 7.35 | 5.7 | 4.23 | 4.86 | 3.24 | 2.12 | 41.3 | 34.3 | 21.5 | 16 | 13.2 | 8.83 | 8.91 | 4.52 | 4.83 | 3.55 | 1.22
CCCCC(C=O)NC(=O)C(CC(C)C)NC(=O)OCc1ccccc1 (stereo not given) | 90.9 | 94.3 | 95.8 | 90.7 | 95.6 | 91.8 | 91.1 | 85.7 | 80.6 | 81 | 70.5 | 88 | 91.3 | 90.3 | 82.1 | 91.6 | 84.2 | 80.6 | 82.3 | 78.3 | 73.7 | 51.7 | 86.1 | 85.4 | 83 | 86.9 | 79.6 | 84.8 | 81.3 | 76.7 | 71.3 | 70.6 | 53.7
Cc1cc(Nc2nc(N[C@@H](C)c3ccc(F)cc3)c(C#N)cc2F)n[nH]1 | 105 | 101 | 96.7 | 105 | 102 | 102 | 101 | 94.2 | 22.1 | 27.6 | 56.8 | 104 | 103 | 106 | 105 | 98.9 | 100 | 107 | 93 | 23 | 44.7 | 53.1 | 96.7 | 89.5 | 104 | 97.4 | 95.6 | 104 | 87.5 | 84.4 | 34.2 | 45.4 | 54.8
